Experiments:
Assay type in all cases: functional, cell-based
RPMI-8226 [1] = experiment: Compound was tested for potency against human myeloma 8226 cells (40 fold resistant to doxorubicin).
L1210 [2] = experiment: Compound was tested for potency against multidrug-resistant murine leukemia L1210 cells; details: Mus musculus
WiDr = experiment: Compound was tested for potency against human colon carcinoma WiDr cells in a sulforhodamine B assay.
SW480 [3] = experiment: Compound was tested for potency against human colon carcinoma SW 480 cells in a sulforhodamine B assay.
RPMI-8226 [4] = experiment: Compound was tested for potency against human myeloma 8226 cells using MTT assay method.
L1210 [5] = experiment: Compound was tested for potency against multi drug resistant murine leukemia L1210 cells.; details: Mus musculus
A549 [6] = experiment: Compound was tested for potency against human lung A549 cells using sulforhodamine B assay.
A549 [7] = experiment: Compound was tested for potency against human lung A549 cells using sulforhodamine B assay; UA=Potency was so low that the IC50 was unachievable.
SW480 [8] = experiment: Compound was tested for potency against human colon carcinoma SW 480 cells in a sulforhodamine B assay; UA=Potency was so low that the IC50 was unachievable.

`C(=N\NC1=NCCN1)/c1c2ccccc2c(/C=N/NC2=NCCN2)c2ccccc12` [BISANTRENE] was tested. Which IC50 (RPMI-8226 [1]) did it give?
The IC50 was 9.1 µM.

And the IC50 (L1210 [2])?
Its IC50 is 0.049 µM.

And the IC50 (WiDr)?
The IC50 was 0.79 µM.

What about the IC50 (SW480 [3]) of the same compound?
The IC50 was 0.09 µM.

And the IC50 (RPMI-8226 [4])?
Its IC50 is 0.018 µM.

What about the IC50 (L1210 [5]) of the same compound?
Its IC50 is 3.2 µM.

And the IC50 (A549 [6])?
The IC50 was 0.017 µM.

Which IC50 (RPMI-8226 [1]) does the source give for `CN(C)CCNC(=O)c1c2ccccc2c(C(=O)NCCN(C)C)c2ccccc12` here?
The IC50 was > 10 µM.

And the IC50 (L1210 [2])?
Its IC50 is 44 µM.

And the IC50 (WiDr)?
The IC50 was 26 µM.

And the IC50 (SW480 [3])?
The IC50 was 44 µM.

And the IC50 (RPMI-8226 [4])?
The IC50 was > 10 µM.

And the IC50 (L1210 [5])?
Its IC50 is 140 µM.

And the IC50 (A549 [6])?
Its IC50 is 99 µM.

With `CN(C)CCNCc1c2ccccc2c(CNCCN(C)C)c2ccccc12` as the compound, how does the IC50 (RPMI-8226 [1]) read?
Its IC50 is 3 µM.

And the IC50 (L1210 [2])?
Its IC50 is 3.3 µM.

What about the IC50 (WiDr) of the same compound?
Its IC50 is 4 µM.

What about the IC50 (SW480 [3]) of the same compound?
Its IC50 is 5 µM.

And the IC50 (RPMI-8226 [4])?
The IC50 was 3 µM.

And the IC50 (L1210 [5])?
The IC50 was 3.6 µM.

What about the IC50 (A549 [6]) of the same compound?
Its IC50 is 5 µM.

With `CN(C)CCNCc1ccc(CNCCN(C)C)c2cc3ccccc3cc12` as the compound, how does the IC50 (RPMI-8226 [1]) read?
The IC50 was 4 µM.

What about the IC50 (L1210 [2]) of the same compound?
The IC50 was 2.8 µM.

And the IC50 (WiDr)?
Its IC50 is 17 µM.

And the IC50 (SW480 [3])?
The IC50 was 19 µM.

What about the IC50 (RPMI-8226 [4]) of the same compound?
The IC50 was 7 µM.

And the IC50 (L1210 [5])?
Its IC50 is 8.3 µM.

And the IC50 (A549 [6])?
The IC50 was 8.1 µM.

How did the IC50 (RPMI-8226 [1]) turn out when `CN(C)CCNC(=O)c1ccc(C(=O)NCCN(C)C)c2c1C(=O)c1ccccc1C2=O` was run?
Its IC50 is 5 µM.

What about the IC50 (L1210 [2]) of the same compound?
The IC50 was 63 µM.

What about the IC50 (WiDr) of the same compound?
Its IC50 is 4.5 µM.

And the IC50 (RPMI-8226 [4])?
The IC50 was > 10 µM.

What about the IC50 (L1210 [5]) of the same compound?
Its IC50 is 73 µM.

What about the IC50 (A549 [7]) of the same compound?
The IC50 was “Unachievable”.

What about the IC50 (SW480 [8]) of the same compound?
The IC50 was “Unachievable”.

How did the IC50 (RPMI-8226 [1]) turn out when `CN(C)CCNCc1ccc(CBr)c2cc3ccccc3cc12` was run?
Its IC50 is 4 µM.

And the IC50 (L1210 [2])?
The IC50 was 52 µM.

What about the IC50 (WiDr) of the same compound?
The IC50 was 15 µM.

And the IC50 (RPMI-8226 [4])?
Its IC50 is 12 µM.

What about the IC50 (L1210 [5]) of the same compound?
The IC50 was 188 µM.

What about the IC50 (A549 [6]) of the same compound?
The IC50 was 91 µM.

And the IC50 (SW480 [8])?
The IC50 was “Unachievable”.

With `CN(C)CCNC(=O)c1ccc(C(=O)NCCN(C)C)c2cc3ccccc3cc12` as the compound, how does the IC50 (RPMI-8226 [1]) read?
Its IC50 is 5 µM.

What about the IC50 (L1210 [2]) of the same compound?
Its IC50 is 4.2 µM.

What about the IC50 (WiDr) of the same compound?
Its IC50 is 1.4 µM.

What about the IC50 (SW480 [3]) of the same compound?
Its IC50 is 3.2 µM.

What about the IC50 (RPMI-8226 [4]) of the same compound?
The IC50 was 3.3 µM.

And the IC50 (L1210 [5])?
The IC50 was 29 µM.

And the IC50 (A549 [6])?
Its IC50 is 0.71 µM.

`C(=N\NC1=NCCN1)/c1ccc(/C=N/NC2=NCCN2)c2cc3ccccc3cc12` was tested. Which IC50 (RPMI-8226 [1]) did it give?
The IC50 was 6.7 µM.

And the IC50 (L1210 [2])?
The IC50 was 2.6 µM.

And the IC50 (WiDr)?
The IC50 was 1.6 µM.

What about the IC50 (SW480 [3]) of the same compound?
The IC50 was 0.72 µM.

And the IC50 (RPMI-8226 [4])?
The IC50 was 5.6 µM.

And the IC50 (L1210 [5])?
Its IC50 is 13 µM.

What about the IC50 (A549 [6]) of the same compound?
The IC50 was 5 µM.
